Results: ChEMBL document CHEMBL4196033, “Potent hydrazone derivatives targeting esophageal cancer cells” (Eur J Med Chem, 2018)
The source made the active and inactive calls. The calls are words filed in the database; no cut-off is given here.

Experiments:
ECa-109 cell line [1] = test: Induction of apoptosis in human EC109 cells assessed as increase in p53 protein expression after 48 hrs by Western blot analysis; format: functional, cell-based
ECa-109 cell line [2] = test: Induction of apoptosis in human EC109 cells assessed as late apoptotic cells at 8 uM after 48 hrs in presence of caspase inhibitor Z-VAD-FMK by Annexin V-FITC/propidium iodide staining based flow cytometry (reference value: 0.01%); format: functional
EC9706 [3] = test: Induction of apoptosis in human EC9706 cells assessed as increase in Bax protein expression after 48 hrs by Western blot analysis; format: functional, cell-based
ECa-109 cell line [4] = test: Induction of apoptosis in human EC109 cells assessed as increase in cleaved PARP protein expression after 48 hrs by Western blot analysis; format: functional, cell-based
EC9706 [5] = test: Induction of ROS generation in human EC9706 cells at 2 uM after 24 hrs by DCFH-DA staining based flow cytometry relative to control; format: functional
ECa-109 cell line [6] = test: Induction of apoptosis in human EC109 cells assessed as necrotic cells at 4 uM after 48 hrs in presence of caspase inhibitor Z-VAD-FMK by Annexin V-FITC/propidium iodide staining based flow cytometry (reference value: 2.37%); format: functional
EC9706 [7] = test: Cell cycle arrest in human EC9706 cells assessed as increase in G0/G1 phase population at 4 uM after 24 hrs by propidium iodide staining based flow cytometry relative to control; format: functional
ECa-109 cell line [8] = test: Induction of apoptosis in human EC109 cells assessed as live cells at 4 uM after 48 hrs in presence of caspase inhibitor Z-VAD-FMK by Annexin V-FITC/propidium iodide staining based flow cytometry (reference value: 96.2%); format: functional
GES1 [9] = test: Antiproliferative activity against human GES-1 cells after 72 hrs by MTT assay; format: cell-based; details: GES1, 72 h
ECa-109 cell line [10] = test: Upregulation of p27 protein expression in human EC109 cells at 8 uM after 24 to 48 hrs by Western blot analysis relative to control; format: functional
ECa-109 cell line [11] = test: Anticlonogenic activity against human EC109 cells after 7 days by crystal violet staining based assay; format: functional, cell-based
ECa-109 cell line [12] = test: Induction of apoptosis in human EC109 cells at 2 to 4 uM after 48 hrs in presence of anti-oxidant NAC by Annexin V-FITC/propidium iodide staining based flow cytometry; format: functional, cell-based
EC9706 [13] = test: Induction of apoptosis in human EC9706 cells assessed as decrease in Bid protein expression at 2 to 8 uM after 48 hrs by Western blot analysis; format: functional, cell-based
EC9706 [14] = test: Cell cycle arrest in human EC9706 cells assessed as increase in S phase population at 2 uM after 24 hrs by propidium iodide staining based flow cytometry relative to control; format: functional
ECa-109 cell line [15] = test: Effect on Prxs-5 protein expression in human EC109 cells at 2 to 8 uM after 48 hrs by Western blot analysis; format: functional, cell-based
EC9706 [16] = test: Induction of apoptosis in human EC9706 cells assessed as necrotic cells at 8 uM after 48 hrs in presence of caspase inhibitor Z-VAD-FMK by Annexin V-FITC/propidium iodide staining based flow cytometry (reference value: 1.2%); format: functional
EC9706 [17] = test: Cell cycle arrest in human EC9706 cells assessed as decrease in G2/M phase population at 8 uM after 24 hrs by propidium iodide staining based flow cytometry relative to control; format: functional
EC9706 [18] = test: Induction of apoptosis in human EC9706 cells assessed as decrease in Bcl2 protein expression after 48 hrs by Western blot analysis; format: functional, cell-based
ECa-109 cell line [19] = test: Effect on Prxs-4 protein expression in human EC109 cells at 2 to 8 uM after 48 hrs by Western blot analysis; format: functional, cell-based
Mus musculus = test: Acute toxicity in C57BL/6 mouse assessed as mortality at 2 g/kg, ig measured for 2 weeks; format: organism-based; details: in vivo, po, 2000 mg/kg, 336 h
SMMC-7721 = test: Antiproliferative activity against human SMMC7721 cells after 72 hrs by MTT assay; format: functional, cell-based; details: SMMC-7721, 72 h
EC9706 [20] = test: Induction of apoptosis in human EC9706 cells assessed as early apoptotic cells at 8 uM after 48 hrs in presence of caspase inhibitor Z-VAD-FMK by Annexin V-FITC/propidium iodide staining based flow cytometry (reference value: 0.33%); format: functional
ECa-109 cell line [21] = test: Induction of apoptosis in human EC109 cells assessed as early apoptotic cells at 8 uM after 48 hrs by Annexin V-FITC/propidium iodide staining based flow cytometry (reference value: 0.43 to 1.15%); format: functional
ECa-109 cell line [22] = test: Induction of morphological changes in human EC109 cells assessed as apoptotic body formation after 48 hrs by Hoechst 33342 staining based fluorescence microscopic method; format: functional, cell-based
EC9706 [23] = test: Cell cycle arrest in human EC9706 cells assessed as increase in G0/G1 phase population at 8 uM after 24 hrs by propidium iodide staining based flow cytometry relative to control; format: functional
EC9706 [24] = test: Induction of ROS generation in human EC9706 cells at 2 to 4 uM after 24 hrs in presence of anti-oxidant NAC by DCFH-DA staining based flow cytometry; format: functional, cell-based
ECa-109 cell line [25] = test: Effect on Prxs-3 protein expression in human EC109 cells at 2 to 8 uM after 48 hrs by Western blot analysis; format: functional, cell-based
ECa-109 cell line [26] = test: Induction of ROS generation in human EC109 cells at 8 uM after 24 hrs by DCFH-DA staining based flow cytometry relative to control; format: functional
ECa-109 cell line [27] = test: Induction of apoptosis in human EC109 cells assessed as live cells at 2 uM after 48 hrs by Annexin V-FITC/propidium iodide staining based flow cytometry (reference value: 95.2 to 99%); format: functional
EC9706 [28] = test: Upregulation of p27 protein expression in human EC9706 cells at 4 uM after 24 to 48 hrs by Western blot analysis relative to control; format: functional
ECa-109 cell line [29] = test: Induction of apoptosis in human EC109 cells assessed as live cells at 8 uM after 48 hrs in presence of caspase inhibitor Z-VAD-FMK by Annexin V-FITC/propidium iodide staining based flow cytometry (reference value: 96.2%); format: functional
MGC-803 = test: Antiproliferative activity against human MGC803 cells after 72 hrs by MTT assay; format: functional, cell-based; details: MGC-803, 72 h
EC9706 [30] = test: Induction of apoptosis in human EC9706 cells assessed as late apoptotic cells at 4 uM after 48 hrs by Annexin V-FITC/propidium iodide staining based flow cytometry (reference value: 1.29 to 1.99%); format: functional
EC9706 [31] = test: Induction of apoptosis in human EC9706 cells assessed as necrotic cells at 4 uM after 48 hrs by Annexin V-FITC/propidium iodide staining based flow cytometry (reference value: 1.1 to 1.31%); format: functional
EC9706 [32] = test: Induction of apoptosis in human EC9706 cells assessed as necrotic cells at 2 uM after 48 hrs by Annexin V-FITC/propidium iodide staining based flow cytometry (reference value: 1.1 to 1.31%); format: functional
EC9706 [33] = test: Induction of apoptosis in human EC9706 cells assessed as necrotic cells at 4 uM after 48 hrs in presence of caspase inhibitor Z-VAD-FMK by Annexin V-FITC/propidium iodide staining based flow cytometry (reference value: 1.2%); format: functional
GES1 [34] = test: Antiproliferative activity against human GES-1 cells after 24 hrs by MTT assay; format: cell-based; details: GES1, 24 h

COc1ccc(/C=N/NC(=O)c2cccc(S(=O)(=O)N3CCOCC3)c2)c(O)c1
Activity (ECa-109 cell line [1]): Dose-dependent effect | Activity (ECa-109 cell line [2]): 21.2% | Activity (EC9706 [3]): Dose-dependent effect | Activity (ECa-109 cell line [4]): Dose-dependent effect | fold change (FC) (EC9706 [5]): 1.16 | Activity (ECa-109 cell line [6]): 20.4% | fold change (FC) (EC9706 [7]): 1.22 | Activity (ECa-109 cell line [8]): 49% | IC50 (GES1 [9]): 14.4 µM | fold change (FC) (ECa-109 cell line [10]): 1.9 | Activity (ECa-109 cell line [11]): Active | Activity (ECa-109 cell line [12]): inactive | Activity (EC9706 [13]): Active | fold change (FC) (EC9706 [14]): 1.54 | Activity (ECa-109 cell line [15]): Active | Activity (EC9706 [16]): 17% | fold change (FC) (EC9706 [17]): 0.26 | Activity (EC9706 [18]): Dose-dependent effect | Activity (ECa-109 cell line [19]): Active | Activity (Mus musculus): Non-Toxic | IC50 (SMMC-7721): 3.95 µM | Activity (EC9706 [20]): 16.4% | Activity (ECa-109 cell line [21]): 18.7 - 25% | Activity (ECa-109 cell line [22]): Dose-dependent effect | fold change (FC) (EC9706 [23]): 1.27 | Activity (EC9706 [24]): inactive | Activity (ECa-109 cell line [25]): Active | fold change (FC) (ECa-109 cell line [26]): 2.21 | Activity (ECa-109 cell line [27]): 79.1% | fold change (FC) (EC9706 [28]): 1.4 | Activity (ECa-109 cell line [29]): 26.9% | IC50 (MGC-803): 2.07 µM | Activity (EC9706 [30]): 18.2 - 21.6% | Activity (EC9706 [31]): 0.48 - 16.1% | Activity (EC9706 [32]): 10.1% | Activity (EC9706 [33]): 15.2% | IC50 (GES1 [34]): > 80 µM
